From publication doi:10.1101/2024.04.24.590935, “Measuring PETase enzyme kinetics by single-molecule microscopy” (bioRxiv, 2024) come the findings set out here.

Experiment [1] has as its target T1, PETase (wild-type PETase, IsPETase) (Pseudideonella sakaiensis, UniProt A0A0K8P6T7).
T1 construct: gene ISF6_4831
Kind of experiment: single-molecule TIRF of Qdot655-labelled PETase on PET film, competition by pNPA. Particulars: 4 mM pNPA; competitive with PET; also model soluble substrate; 50 mM sodium phosphate, 100 mM NaCl, pH 7.4, 22 °C. It is filed as binding.

In experiment [2] the target is T2, PETase (wild-type PETase, IsPETase) (Pseudideonella sakaiensis, UniProt A0A0K8P6T7, W159H/S238F).
T2 construct: gene ISF6_4831
T2 sequence (A0A0K8P6T7 28-290 W159H/S238F): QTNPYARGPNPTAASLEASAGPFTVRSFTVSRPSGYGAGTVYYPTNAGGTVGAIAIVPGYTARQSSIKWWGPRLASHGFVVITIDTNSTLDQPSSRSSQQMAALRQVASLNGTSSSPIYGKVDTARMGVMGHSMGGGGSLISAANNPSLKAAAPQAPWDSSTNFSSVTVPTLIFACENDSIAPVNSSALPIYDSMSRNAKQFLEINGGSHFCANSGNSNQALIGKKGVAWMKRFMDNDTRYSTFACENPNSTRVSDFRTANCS
The description is as above. The format is binding. To be noted: 4 mM pNPA; competitive with PET; also model soluble substrate; 50 mM sodium phosphate, 100 mM NaCl, pH 7.4, 22 °C.

T1 sequence (A0A0K8P6T7 28-290): as the sequence (A0A0K8P6T7 28-290 W159H/S238F) above, with H132W, F211S counted along it

Consider `CC(=O)Oc1ccc([N+](=O)[O-])cc1` [4-Nitrophenyl acetate], for which the “single-molecule TIRF of Qdot655-labelled PETase on PET film, competition by pNPA” value is “pNPA reduced the binding duration of wild-type PETase and the hyperactive variant” in experiment [1]; “pNPA strongly diminished the landing rate of the wild-type and hyperactive mutant” in experiment [2].
